Test results reported in patent publication US11001605B2, “Cyclic dinucleotides containing benzimidazole, method for the production of same, and use of same to activate stimulator of interferon genes (sting)-dependent signaling pathways” (BIOLOG LIFE SCIENCE INSTITUTE GmbH & Co. KG, priority 2016, dated 2021).
One block for each compound: values may come before it.

Columns and labels:
[1] = Lipophilicity determination by gradient HPLC (log k′g); format: physicochemical; details: HPLC gradient 1, RP-18, triethylammonium phosphate buffer pH 6.5 / methanol (ion pair chromatography)
Protocol: Gradient 1: Stationary phase: Polygosil 60-10, RP-18; 250×4 mm (Macherey & Nagel, DOren, Germany). Mobile phase A: 10 ml 1 M triethylammonium phosphate buffer (TEAP), pH 6.5+990 ml methanol. Mobile phase B: 10 ml 1 M TEAP, pH 6.5+990 ml H2O. Time program: 0 min: 100% B; 60 min: 100% A; 65 min: 100% A; 70 min: 100% B; 90 min: 100% B. Flow rate: 1.0 ml/min.
The octanol/water coefficient Log P is the commonly accepted indicator for the expected property of a given chemical entity to pass cellular membranes by passive diffusion. However, its practical determination for polar compounds such as multiply charged nucleotides is difficult in reality. Often, the information about membrane permeability must be received by fragmental analysis or other calculations.
Given this fact, an established HPLC method is used here, which is based on the measurement of retention on a reversed phase column^7. In contrast to Log P, this method yields the indicator log k′g, which allows for a ranking of different nucleotides of the same charge according to their lipophilicity.
Since CDNs are twofold negatively charged molecules which are only very insufficiently retarded on a reversed phase HPLC column, the determinations were performed in presence of the lipophilic triethylammonium cation (ion pair chromatography).
According to the established method^7 HPLC gradient 1 was used for the determination of lipophilicity.

STING signalling pathway = test: Interferon-β promoter SEAP reporter assay in THP1-Blue cells; format: cell-based, human; details: 0, 10, 20, 40 μg/ml, 24 hours
Protocol: Legend for Synthesis 4: THP1-Blue™ cells ((THP1-ISG); InvivoGen, catalogue number: thp-isg; concentration: 5×10^5/ml, 180 μl/well (96-well-plate) were incubated with inventive CDNs in different concentrations (0 μg/ml; 10 μg/ml; 20 μg/ml; 40 μg/ml) in medium (RPMI-1640, 2 mM L-glutamine, 1.5 g/I sodium bicarbonate, 4.5 g/I glucose, 10 mM HEPES, 1 mM sodium pyruvate, 10% FCS, 100 μg/ml Zeocin™, 110 μg/ml Normocin™, Pen-Strep 50 U/ml) for 24 hours at 37° C. in 5% CO2. The quantification was performed with SEAP detection reagent QUANTI-Blue™ (InvivoGen; catalogue number: rep-qb1; incubation time: 30 min at 37° C. in 5% CO2) by optical density (OD) determination at 625 nm.
Legend for Synthesis 5: THP1-Blue™ cells ((THP1-ISG); InvivoGen, catalogue number: thp-isg; concentration: 5×10^5/ml, 180 μl/well (96-well-plate) and THP1 Dual™ KO STING cells ((STING KO) InvivoGen, catalogue number: thpd-kostg; concentration: 5×10^5/ml, 180 μl/well (96-well-plate) were incubated with inventive CDNs (concentration 40 μg/ml each) in medium (RPMI-1640, 2 mM L-glutamine, 1.5 g/I sodium bicarbonate, 4.5 g/I glucose, 10 mM HEPES, 1 mM sodium pyruvate, 10% FCS, 100 μg/mL Zeocin™, 110 μg/mL Normocin™, Pen-Strep 50 U/mL) for 24 hours at 37° C. in 5% CO2. For incubations with THP1 Dual™ KO STING cells, 10 μg/ml of blasticidin were added to the medium. Quantification was performed with SEAP detection reagent QUANTI-Blue™ (InvivoGen; catalogue number: rep-qb1; incubation time: 15 min at 37° C. in 5% CO2) by optical density (OD) determination at 625 nm.
Cell line: THP1-Blue™ cells (InvivoGen, catalogue number: thp-isg) are derived from THP1 cells. THP1-Blue™ cells in a cell culture dish are stimulated by the administration of a CDN according to the invention or a buffer control.
In these genetically modified cells, the gene for secreted embryonic alkaline phosphatase (SEAP) is under the control of an interferon-β promoter.
After stimulation of the cells with an inventive CDN, the supernatant of the cell culture was removed and the enzymatic activity of SEAP was measured photometrically in a colorimetric assay by measuring the extinction at 625 nm (optical density; OD 625 nm).
Administration of an inventive CDN induces an increase in the activity of SEAP, which is a measure of the activity of the STING signalling pathway.

[2] = tested on: STING-induced dimerisation and phosphorylation of IRF3, STING-induced phosphorylation of TBK1; test: STING-induced dimerisation and phosphorylation of IRF3 and phosphorylation of TBK1, Western Blot of THP-1 cell lysate; format: cell-based, human; details: THP-1 cells, native gel and SDS-PAGE Western Blot, versus buffer control
Protocol: Cell line: THP-1 cells (Sigma Cat. No. 88081201-1VL) were isolated from peripheral blood of a patient with acute leukaemia.
After application of an inventive CDN or a buffer control to THP1 cells in a culture dish a cell lysate is prepared, of which one part is applied to a native polyacrylamide gel and the other part to two denaturing polyacrylamide gels (SDS-PAGE). The developed gels are analysed with Western Blot technique.
In case of the native gel an IRF3 antibody is used.
The presence of an inventive CDN results in the formation of a second band, showing a running behaviour, which corresponds to the doubled molecular weight of IRF3. This band represents the dimer of IRF3, that has been formed under the influence of an inventive CDN.
In case of the two denaturing gels, either an antibody against phosphorylated IRF3 or an antibody against phosphorylated TBK1 is used. In the buffer control for each of the gels only a very weak band is detected. After application of an inventive CDN, the intensities of these bands are much more pronounced. This increase of intensity reflects the phosphorylation of IRF3 and of TBK1, respectively, induced by the inventive CDNs. Both, the dimerisation of IRF3 and the detected phosphorylations are a direct result of STING activation.

Compound: Nc1nc2c(ncn2[C@@H]2O[C@@H]3COP(=O)(O)O[C@H]4[C@@H](O)[C@H](n5cnc6c(N)ncnc65)O[C@@H]4COP(=O)(O)O[C@@H]2[C@@H]3O)c(=O)[nH]1 [2′,3′-cGAMP, reference compound]
log k′g [1]: 0.766

Compound: O=P1(S)OC[C@H]2O[C@@H](n3cnc4ccccc43)C(O)C2OP(=O)(S)OC[C@H]2O[C@@H](n3cnc4ccccc43)C(O)C2O1 (stereo partly shown) [Compound 4, cyclic (benzimidazole riboside- (3′ −> 5′)-monophosphorothioate- benzimidazole riboside-(3′ −> 5′)- monophosphorothioate)]
STING-induced dimerisation of IRF3, phosphorylation of IRF3 and phosphorylation of TBK1 [2]: positive

Compound: O=P1(S)OC[C@H]2O[C@@H](n3cnc4cc(Cl)c(Cl)cc43)C(O)C2OP(=O)(S)OC[C@H]2O[C@@H](n3cnc4cc(Cl)c(Cl)cc43)C(O1)C2O (stereo partly shown) [Compound 11, cyclic (5,6-dichlorobenzimidazole riboside-(2′ −> 5′)-monophosphorothioate-(5,6-dichlorobenzimidazole riboside-(3′ −> 5′)-monophosphorothioate)]
STING-induced dimerisation of IRF3, phosphorylation of IRF3 and phosphorylation of TBK1 [2]: positive

Compound: Nc1nc2c(ncn2[C@@H]2O[C@@H]3COP(=O)(S)OC4C(O)[C@H](n5cnc6cc(Cl)c(Cl)cc65)O[C@@H]4COP(=O)(S)OC2C3O)c(=O)[nH]1 (stereo partly shown) [Compound 29, cyclic (guanosine-(2′ −> 5′)-monophosphorothioate-5,6-dichlorobenzimidazole riboside-(3′ −> 5′)-monophosphorothioate)]
STING-induced dimerisation of IRF3, phosphorylation of IRF3 and phosphorylation of TBK1 [2]: positive

Compound: Nc1nc2c(ncn2[C@@H]2O[C@@H]3COP(=O)(S)OC4C(O)[C@@H](COP(=O)(S)OC2C3O)O[C@H]4n2cnc3cc(Cl)c(Cl)cc32)c(=O)[nH]1 (stereo partly shown) [Compound 30, cyclic (guanosine-(2′ −> 5′)-monophosphorothioate-5,6-dichlorobenzimidazole riboside-(2′ −> 5′)-monophosphorothioate)]
STING-induced dimerisation of IRF3, phosphorylation of IRF3 and phosphorylation of TBK1 [2]: positive

Compound: Nc1nc2c(ncn2[C@@H]2O[C@@H]3COP(=O)(O)O[C@H]4[C@@H](O)[C@H](n5cnc6c(=O)[nH]c(N)nc65)O[C@@H]4COP(=O)(O)O[C@H]3[C@H]2O)c(=O)[nH]1 [c-diGMP, reference compound]
log k′g [1]: 0.840

Continued, in another order:

log k′g ([1]; listed as 23, MI1): 1.509
Compound: Nc1nc2c(ncn2[C@@H]2O[C@@H]3COP(=O)(S)OC4C(O)[C@H](n5cnc6ccccc65)O[C@@H]4COP(=O)(S)OC2C3O)c(=O)[nH]1 (single isomer, unassigned) [Compound 23, MI1, Cyclic (guanosine-(2′→5′)-monophosphorothioate-benzimidazole riboside-(3′→5′)-monophosphorothioate)]

log k′g ([1]; listed as 23, MI2): 1.658
Compound: Nc1nc2c(ncn2[C@@H]2O[C@@H]3COP(=O)(S)OC4C(O)[C@H](n5cnc6ccccc65)O[C@@H]4COP(=O)(S)OC2C3O)c(=O)[nH]1 (single isomer, unassigned) [Compound 23, MI2, Cyclic (guanosine-(2′→5′)-monophosphorothioate-benzimidazole riboside-(3′→5′)-monophosphorothioate)]
SEAP activity, elevated OD at 625 nm, concentration-dependent (STING signalling pathway): positive

log k′g ([1]; listed as 29, MI1): 2.318
Compound: Nc1nc2c(ncn2[C@@H]2O[C@@H]3COP(=O)(S)OC4C(O)[C@H](n5cnc6cc(Cl)c(Cl)cc65)O[C@@H]4COP(=O)(S)OC2C3O)c(=O)[nH]1 (single isomer, unassigned) [Compound 29, MI1, Cyclic (guanosine-(2′→5′)-monophosphorothioate-5,6-dichlorobenzimidazole riboside-(3′→5′)-monophosphorothioate)]

log k′g ([1]; listed as 98, MI2): 1.584
Compound: Nc1ncnc2c1ncn2[C@@H]1O[C@@H]2COP(=O)(S)OC3C(O)[C@@H](COP(=O)(S)OC2C1O)O[C@H]3n1cnc2ccccc21 (single isomer, unassigned) [Compound 98, MI2, Cyclic (adenosine-(3′→5′)-monophosphorothioate-benzimidazole riboside-(2′→5′)-monophosphorothioate)]

log k′g [1]: 1.732
Compound: O=P1(O)OC[C@H]2O[C@@H](n3cnc4ccccc43)C(O)C2OP(=O)(O)OC[C@H]2O[C@@H](n3cnc4ccccc43)C(O)C2O1 (stereo partly shown) [Compound 1, cyclic (benzimidazole riboside- (3′ −> 5′)-monophosphate- benzimidazole riboside-(3′ −> 5′)- monophosphate)]

log k′g [1]: 2.970
Compound: O=P1(O)OC[C@H]2O[C@@H](n3cnc4cc(Cl)c(Cl)cc43)C(O)C2OP(=O)(O)OC[C@H]2O[C@@H](n3cnc4cc(Cl)c(Cl)cc43)C(O)C2O1 (stereo partly shown) [Compound 7, cyclic (5,6-dichlorobenzimidazole riboside-(3′ −> 5′)-monophosphate-5,6-dichlorobenzimidazole riboside-(3′ −> 5′)-monophosphate)]

log k′g [1]: 2.039
Compound: Nc1ncnc2c1ncn2[C@@H]1O[C@@H]2COP(=O)(O)OC3C(O)[C@H](n4cnc5cc(Cl)c(Cl)cc54)O[C@@H]3COP(=O)(O)OC2C1F (stereo partly shown) [Compound 81, cyclic (2′-fluoro-2′-deoxyadenosine-(3′ −> 5′)-monophosphate-5,6-dichlorobenzimidazole riboside-(3′ −> 5′)-monophosphate)]
SEAP activity, elevated OD at 625 nm, concentration-dependent (STING signalling pathway): positive

log k′g [1]: 1.211
Compound: O=c1[nH]cnc2c1ncn2[C@@H]1O[C@@H]2COP(=O)(O)OC3C(O)[C@H](n4cnc5ccccc54)O[C@@H]3COP(=O)(O)OC2C1F (stereo partly shown) [Compound 85, cyclic (2′-fluoro-2′-deoxyinosine-(3′ −> 5′)-monophosphate-benzimidazole riboside-(3′ −> 5′)-monophosphate)]
